From the supplement of paper PMC10307832

How the values were obtained:
Experiment in all cases: relative viability (nuclei count vs DMSO), 5 days (fraction); higher = more cells survive
Pictilisib + Bortezomib = compound: CS(=O)(=O)N1CCN(Cc2cc3nc(-c4cccc5[nH]ncc45)nc(N4CCOCC4)c3s2)CC1 [Pictilisib] + CC(C)C[C@H](NC(=O)[C@H](Cc1ccccc1)NC(=O)c1cnccn1)B(O)O [Bortezomib] (partner 0.002 µM)
Summary of the method: (§1)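 Cells from lung cancer lines were seeded into 1536-well plates and, one day later, dosed by pin tool. Treatments were either a single drug or a fixed dose of an anchor drug with five library-drug doses (not always all listed) in √10 steps. After 5 days, nuclei were stained in a one-step fixation (final 0.05% Triton X-100, 1% formaldehyde, 1 ug/ml Hoechst) and counted on 4× images, and relative viability is the treated-to-vehicle nuclei ratio, as the median of duplicate plates.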

Pictilisib + Luminespib = compound: CS(=O)(=O)N1CCN(Cc2cc3nc(-c4cccc5[nH]ncc45)nc(N4CCOCC4)c3s2)CC1 [Pictilisib] + CCNC(=O)c1noc(-c2cc(C(C)C)c(O)cc2O)c1-c1ccc(CN2CCOCC2)cc1 [Luminespib] (partner 0.01 µM)
Summary of the method: as §1

MK-2206 + OSI-027 = compound: NC1(c2ccc(-c3nc4ccn5c(=O)[nH]nc5c4cc3-c3ccccc3)cc2)CCC1 [MK-2206] + COc1cccc2cc(-c3nc([C@H]4CC[C@H](C(=O)O)CC4)n4ncnc(N)c34)[nH]c12 [OSI-027] (partner 0.5 µM)
Summary of the method: as §1

MK-2206 + Tozasertib = compound: NC1(c2ccc(-c3nc4ccn5c(=O)[nH]nc5c4cc3-c3ccccc3)cc2)CCC1 [MK-2206] + Cc1cc(Nc2cc(N3CCN(C)CC3)nc(Sc3ccc(NC(=O)C4CC4)cc3)n2)n[nH]1 [Tozasertib] (partner 0.1 µM)
Summary of the method: as §1

MK-2206 + Alpelisib = compound: NC1(c2ccc(-c3nc4ccn5c(=O)[nH]nc5c4cc3-c3ccccc3)cc2)CCC1 [MK-2206] + Cc1nc(NC(=O)N2CCC[C@H]2C(N)=O)sc1-c1ccnc(C(C)(C)C(F)(F)F)c1 [Alpelisib] (partner 2 µM)
Summary of the method: as §1

Row | Cell Line | relative viability (Pictilisib + Bortezomib; first compound 0.02 µM) | relative viability (Pictilisib + Bortezomib; first compound 0.06325 µM) | relative viability (Pictilisib + Bortezomib; first compound 0.6325 µM) | relative viability (Pictilisib + Bortezomib; first compound 2 µM) | relative viability (Pictilisib + Luminespib; first compound 0.02 µM) | relative viability (Pictilisib + Luminespib; first compound 0.06325 µM) | relative viability (Pictilisib + Luminespib; first compound 0.6325 µM) | relative viability (Pictilisib + Luminespib; first compound 2 µM) | relative viability (MK-2206 + OSI-027; first compound 0.01 µM) | relative viability (MK-2206 + OSI-027; first compound 0.03162 µM) | relative viability (MK-2206 + OSI-027; first compound 0.3162 µM) | relative viability (MK-2206 + OSI-027; first compound 1 µM) | relative viability (MK-2206 + Tozasertib; first compound 0.01 µM) | relative viability (MK-2206 + Tozasertib; first compound 0.03162 µM) | relative viability (MK-2206 + Tozasertib; first compound 0.3162 µM) | relative viability (MK-2206 + Tozasertib; first compound 1 µM) | relative viability (MK-2206 + Alpelisib; first compound 0.01 µM) | relative viability (MK-2206 + Alpelisib; first compound 0.03162 µM) | relative viability (MK-2206 + Alpelisib; first compound 0.3162 µM) | relative viability (MK-2206 + Alpelisib; first compound 1 µM)
1 | NCI-H2009 | 1.06 | 1.05 | 0.871 | 0.671 | 1.01 | 1.05 | 1.04 | 0.773 | 0.63 | 0.582 | 0.497 | 0.399 | 0.657 | 0.674 | 0.677 | 0.639 | 1.16 | 1.17 | 1.14 | 1.12
2 | SW 900 | – | – | – | – | 0.183 | 0.15 | 0.163 | 0.158 | 0.728 | 0.542 | 0.416 | 0.481 | 0.561 | 0.531 | 0.569 | 0.698 | – | – | – | –
3 | NCI-H441 | 0.702 | 0.373 | 0.41 | 0.338 | 0.307 | 0.236 | 0.269 | 0.221 | 0.922 | 0.473 | 0.428 | 0.393 | 0.68 | 0.573 | 0.498 | 0.462 | 0.697 | 0.742 | 0.453 | 0.661
4 | NCI-H1623 | – | – | – | – | 0.452 | 0.455 | 0.379 | 0.303 | 0.44 | 0.426 | 0.411 | 0.355 | 0.458 | 0.394 | 0.456 | 0.44 | – | – | – | –
5 | NCI-H1437 | 0.582 | 0.488 | 0.532 | 0.231 | 1.14 | 1.16 | 1.25 | 1.19 | 0.91 | 0.844 | 0.746 | 0.675 | 0.408 | 0.425 | 0.396 | 0.349 | 0.983 | 0.979 | 0.764 | 0.83
6 | PC-14 | 1.04 | 0.794 | 0.89 | 0.573 | 0.162 | 0.151 | 0.141 | 0.123 | 0.746 | 0.911 | 0.597 | 0.661 | 0.593 | 0.653 | 0.587 | 0.642 | 0.852 | 0.98 | 0.74 | 0.881
7 | HCC-366 | 1.08 | 1.01 | 0.691 | 0.189 | – | – | – | – | 0.927 | 0.962 | 0.569 | 0.44 | 0.159 | 0.0953 | 0.165 | 0.0632 | 0.526 | 0.48 | 0.244 | 0.212
8 | SK-MES-1 | – | – | – | – | 0.748 | 0.702 | 0.279 | 0.219 | 0.62 | 0.502 | 0.452 | 0.504 | 0.813 | 0.847 | 0.885 | 0.794 | 0.882 | 1.05 | 0.786 | 0.851
9 | LK-2 | – | – | – | – | 0.198 | 0.144 | 0.152 | 0.188 | 0.179 | 0.199 | 0.181 | 0.151 | 0.174 | 0.165 | 0.186 | 0.168 | 0.977 | 1.42 | 1.13 | 1.06
